Test results reported in ChEMBL document CHEMBL1201862, “PubChem BioAssay data set” (2004).
The source made the active and inactive calls.

Key:
[1] = biological target: Potassium voltage-gated channel subfamily KQT member 2 (Rattus norvegicus, UniProt O88943); test: blockers of KCNQ2 channel current – cell-based, automated electrophysiology, set II, rat KCNQ2, dose response (AID 588637); assay type: functional
[2] = biological target: Melanin-concentrating hormone receptor 1 (Homo sapiens, UniProt Q99705); test: Late-stage fluorescence-based counterscreen for antagonists of the G-protein coupled receptor 7 (GPR7): cell-based dose response assay to identify antagonists of the melanin-concentrating hormone receptor 1 (MCHR1) Set 6.; assay type: functional
[3] = biological target: T1, Neuropeptides B/W receptor type 1 (Homo sapiens, UniProt P48145); test: human NPBW1 receptor blockade, IC50 – cell-based, fluorescence, dose response, set 6, late-stage follow-up (AID 588583); assay type: functional
T1 sequence (P48145 whole entry): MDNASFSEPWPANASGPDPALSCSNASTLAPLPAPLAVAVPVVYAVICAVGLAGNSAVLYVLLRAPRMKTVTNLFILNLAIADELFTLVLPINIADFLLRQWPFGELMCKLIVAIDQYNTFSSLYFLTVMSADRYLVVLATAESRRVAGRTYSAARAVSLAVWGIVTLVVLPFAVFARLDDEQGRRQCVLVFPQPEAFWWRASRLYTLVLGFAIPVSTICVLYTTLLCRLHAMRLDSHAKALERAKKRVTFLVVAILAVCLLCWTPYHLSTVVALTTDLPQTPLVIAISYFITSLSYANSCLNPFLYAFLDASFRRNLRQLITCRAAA

[4] = (§1) Counterscreen for antagonists of the orexin 1 receptor (OX1R; HCRTR1): Fluorescence-based cell-based high throughput dose response assay to identify antagonists of the parental CHO cell line. [Related pubchem assays (depositor defined):AID434989, AID435008, AID463079, AID485270, AID492963, AID492964, AID492965, AID493232, AID504699, AID504701]; assay type: functional
[5] = biological target: T2, Orexin/Hypocretin receptor type 1 (Homo sapiens, UniProt O43613); test: (§2) Fluorescence-based cell-based high throughput dose response assay for antagonists of the orexin 1 receptor (OX1R; HCRTR1). [Related pubchem assays (depositor defined):AID434989, AID435008, AID463079, AID485270, AID492963, AID492964, AID492965, AID493232, AID504717, AID504718]; assay type: functional
T2 sequence (O43613 whole entry): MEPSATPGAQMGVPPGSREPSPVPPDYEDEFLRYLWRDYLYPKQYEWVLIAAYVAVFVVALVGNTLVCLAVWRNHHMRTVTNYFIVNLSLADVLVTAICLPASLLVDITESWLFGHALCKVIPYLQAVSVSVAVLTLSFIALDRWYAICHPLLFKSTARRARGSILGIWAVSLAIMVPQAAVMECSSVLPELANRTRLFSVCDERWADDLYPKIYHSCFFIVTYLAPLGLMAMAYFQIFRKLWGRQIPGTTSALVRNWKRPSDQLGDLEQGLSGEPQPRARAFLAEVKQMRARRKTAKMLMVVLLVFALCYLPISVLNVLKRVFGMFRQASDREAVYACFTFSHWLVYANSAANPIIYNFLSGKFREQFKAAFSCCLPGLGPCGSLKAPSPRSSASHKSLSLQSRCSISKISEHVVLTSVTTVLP

[6] = biological target: T3, Orexin receptor type 2 (Homo sapiens, UniProt O43614); test: Counterscreen assay for antagonists of the orexin 1 receptor (OX1R; HCRTR1): Fluorescence-based cell-based dose response assay for antagonists of the orexin 2 receptor (OX2R; HCRTR2), run by assay provider.; assay type: functional
T3 sequence (O43614 whole entry): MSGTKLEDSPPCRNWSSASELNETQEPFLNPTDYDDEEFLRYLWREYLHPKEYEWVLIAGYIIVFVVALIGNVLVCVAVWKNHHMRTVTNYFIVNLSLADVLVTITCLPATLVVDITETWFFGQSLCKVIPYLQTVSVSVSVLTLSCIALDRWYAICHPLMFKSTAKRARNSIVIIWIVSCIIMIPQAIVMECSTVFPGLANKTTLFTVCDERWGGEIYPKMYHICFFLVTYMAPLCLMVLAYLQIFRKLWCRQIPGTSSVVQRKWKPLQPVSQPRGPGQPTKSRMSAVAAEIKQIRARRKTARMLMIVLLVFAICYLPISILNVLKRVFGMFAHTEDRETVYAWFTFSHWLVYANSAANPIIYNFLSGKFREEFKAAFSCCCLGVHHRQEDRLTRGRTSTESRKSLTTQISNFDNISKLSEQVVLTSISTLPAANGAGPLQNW

[7] = tested on: CHO-K1; test: as §1, with “Homogeneous time resolved fluorescence (HTRF)-based” for “Fluorescence-based”, “cell-based” for “cell-based high throughput”, “CHO-K1” for “CHO”; assay type: functional; conditions: Cricetulus griseus;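 further: potency for inhibition of ATP-stimulated IP1 production as antagonists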
[8] = biological target: T2, Orexin/Hypocretin receptor type 1; test: as §2, with “Homogeneous Time Resolved Fluorescence (HTRF)-based” for “Fluorescence-based”; assay type: functional
[9] = biological target: T3, Orexin receptor type 2; test: Counterscreen assay for antagonists of the orexin 1 receptor (OX1R; HCRTR1): Homogeneous Time Resolved Fluorescence (HTRF)-based cell-based dose response assay for antagonists of the orexin 2 receptor (OX2R; HCRTR2), run by assay provider.; assay type: functional
[10] = biological target: T4, High affinity choline transporter 1 (Homo sapiens, UniProt Q9GZV3); test: human choline transporter blockers, potency – cell-based, 10-point CRC, membrane potential dye, dose response (AID 588401); assay type: functional;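 further: membrane potential dye fluorescence of choline-evoked depolarization via CHT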
T4 sequence (Q9GZV3 whole entry): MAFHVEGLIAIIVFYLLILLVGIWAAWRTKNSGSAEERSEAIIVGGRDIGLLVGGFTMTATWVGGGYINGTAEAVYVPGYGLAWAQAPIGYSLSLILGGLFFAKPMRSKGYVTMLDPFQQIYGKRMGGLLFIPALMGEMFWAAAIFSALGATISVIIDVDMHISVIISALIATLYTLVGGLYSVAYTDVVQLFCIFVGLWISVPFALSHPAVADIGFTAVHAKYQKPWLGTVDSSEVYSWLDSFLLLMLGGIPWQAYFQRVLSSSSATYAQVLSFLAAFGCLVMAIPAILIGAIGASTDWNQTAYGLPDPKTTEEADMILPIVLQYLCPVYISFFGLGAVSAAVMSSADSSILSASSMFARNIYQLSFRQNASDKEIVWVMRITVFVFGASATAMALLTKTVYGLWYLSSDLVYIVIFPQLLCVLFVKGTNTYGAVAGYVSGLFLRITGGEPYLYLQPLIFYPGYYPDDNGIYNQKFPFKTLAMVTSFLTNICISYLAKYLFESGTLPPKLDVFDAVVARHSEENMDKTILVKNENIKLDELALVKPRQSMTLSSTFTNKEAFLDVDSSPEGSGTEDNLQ

[11] = biological target: T4, High affinity choline transporter 1; test: human choline transporter blockers, potency – cell-based, 5-point CRC, membrane potential dye, dose response (AID 504840); assay type: functional
[12] = biological target: Mitochondrial peptide methionine sulfoxide reductase (Bos taurus, UniProt P54149); test: Absorbance-based biochemical high throughput dose response assay for activators of Methionine sulfoxide reductase A (MsrA).; assay type: functional
[13] = biological target: T5, Polyadenylate-binding protein 1 (Homo sapiens, UniProt P11940); test: MLLE binding blockers, Cy5 peptide tracer – biochemical, fluorescence polarization, Cy5-PAM2 peptide, secondary, miRNA deadenylation inhibitor project, dose response (AID 602260); assay type: functional; conditions: read-out: IC50_Mean
[14] = biological target: T5, Polyadenylate-binding protein 1; test: MLLE domain peptide-binding blockers, IC50 – biochemical, fluorescence polarization, FITC-PAM2 peptide, dose response (AID 602259); assay type: functional; conditions: read-out: IC50_Mean
[15] = bead-based luminescence quenchers, dual-tagged ARNT – biochemical, AlphaScreen, cherry-pick, artefact control for ARNT-TACC3 interaction inhibitor project, dose response (AID 651705); assay type: functional;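 further: AlphaScreen bead proximity signal that flags compounds interfering with the detection technology; potency reflects signal decrease which marks the compound as an assay artifact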
[16] = biological target: Nonstructural protein 1 (Influenza A virus, UniProt Q194T2); assay type: functional, Influenza A virus (A/California/07/2009(H1N1))
[17] = viability of uninfected HEp-2 cells – cell-based, HTS, cytotoxicity control for RSV inhibitor project, dose response (AID 2410); assay type: functional; conditions: human respiratory syncytial virus
[18] = biological target: Heat shock protein HSP 90-alpha (Homo sapiens, UniProt P07900); assay type: functional, organism-based
[19] = biological target: T6, Voltage-gated N-type calcium channel alpha-1B subunit/Amyloid beta A4 precursor protein-binding family A member 1 (Homo sapiens, UniProt Q00975+Q02410); assay type: protein assay
[20] = biological target: Trypsin (Sus scrofa, UniProt P00761); test: trypsin protease activity blockade – biochemical, quenched peptide fluorescence, cherry-pick, selectivity assay for Rce1 protease inhibitor project, dose response (AID 488789)
[21] = biological target: T6, Voltage-gated N-type calcium channel alpha-1B subunit/Amyloid beta A4 precursor protein-binding family A member 1; assay type: protein assay; remark: listed apart in the source
[22] = biological target: Melanocortin receptor 4 (Homo sapiens, UniProt P32245); assay type: functional, cell-based;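 further: Cell-based assay with luminescence read-out, confirmatory dose-response testing for agonist activity of biased ligands at MC4R; human U2OS cells with tagged receptor and beta-arrestin; potency of agonists that increase receptor coupling to beta-arrestin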
[23] = biological target: Aryl hydrocarbon receptor (Homo sapiens, UniProt P35869); conditions: Potency;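 further: confirmatory quantitative high-throughput screen measuring activation of the AhR signaling pathway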

T6 sequence (Q00975 whole entry): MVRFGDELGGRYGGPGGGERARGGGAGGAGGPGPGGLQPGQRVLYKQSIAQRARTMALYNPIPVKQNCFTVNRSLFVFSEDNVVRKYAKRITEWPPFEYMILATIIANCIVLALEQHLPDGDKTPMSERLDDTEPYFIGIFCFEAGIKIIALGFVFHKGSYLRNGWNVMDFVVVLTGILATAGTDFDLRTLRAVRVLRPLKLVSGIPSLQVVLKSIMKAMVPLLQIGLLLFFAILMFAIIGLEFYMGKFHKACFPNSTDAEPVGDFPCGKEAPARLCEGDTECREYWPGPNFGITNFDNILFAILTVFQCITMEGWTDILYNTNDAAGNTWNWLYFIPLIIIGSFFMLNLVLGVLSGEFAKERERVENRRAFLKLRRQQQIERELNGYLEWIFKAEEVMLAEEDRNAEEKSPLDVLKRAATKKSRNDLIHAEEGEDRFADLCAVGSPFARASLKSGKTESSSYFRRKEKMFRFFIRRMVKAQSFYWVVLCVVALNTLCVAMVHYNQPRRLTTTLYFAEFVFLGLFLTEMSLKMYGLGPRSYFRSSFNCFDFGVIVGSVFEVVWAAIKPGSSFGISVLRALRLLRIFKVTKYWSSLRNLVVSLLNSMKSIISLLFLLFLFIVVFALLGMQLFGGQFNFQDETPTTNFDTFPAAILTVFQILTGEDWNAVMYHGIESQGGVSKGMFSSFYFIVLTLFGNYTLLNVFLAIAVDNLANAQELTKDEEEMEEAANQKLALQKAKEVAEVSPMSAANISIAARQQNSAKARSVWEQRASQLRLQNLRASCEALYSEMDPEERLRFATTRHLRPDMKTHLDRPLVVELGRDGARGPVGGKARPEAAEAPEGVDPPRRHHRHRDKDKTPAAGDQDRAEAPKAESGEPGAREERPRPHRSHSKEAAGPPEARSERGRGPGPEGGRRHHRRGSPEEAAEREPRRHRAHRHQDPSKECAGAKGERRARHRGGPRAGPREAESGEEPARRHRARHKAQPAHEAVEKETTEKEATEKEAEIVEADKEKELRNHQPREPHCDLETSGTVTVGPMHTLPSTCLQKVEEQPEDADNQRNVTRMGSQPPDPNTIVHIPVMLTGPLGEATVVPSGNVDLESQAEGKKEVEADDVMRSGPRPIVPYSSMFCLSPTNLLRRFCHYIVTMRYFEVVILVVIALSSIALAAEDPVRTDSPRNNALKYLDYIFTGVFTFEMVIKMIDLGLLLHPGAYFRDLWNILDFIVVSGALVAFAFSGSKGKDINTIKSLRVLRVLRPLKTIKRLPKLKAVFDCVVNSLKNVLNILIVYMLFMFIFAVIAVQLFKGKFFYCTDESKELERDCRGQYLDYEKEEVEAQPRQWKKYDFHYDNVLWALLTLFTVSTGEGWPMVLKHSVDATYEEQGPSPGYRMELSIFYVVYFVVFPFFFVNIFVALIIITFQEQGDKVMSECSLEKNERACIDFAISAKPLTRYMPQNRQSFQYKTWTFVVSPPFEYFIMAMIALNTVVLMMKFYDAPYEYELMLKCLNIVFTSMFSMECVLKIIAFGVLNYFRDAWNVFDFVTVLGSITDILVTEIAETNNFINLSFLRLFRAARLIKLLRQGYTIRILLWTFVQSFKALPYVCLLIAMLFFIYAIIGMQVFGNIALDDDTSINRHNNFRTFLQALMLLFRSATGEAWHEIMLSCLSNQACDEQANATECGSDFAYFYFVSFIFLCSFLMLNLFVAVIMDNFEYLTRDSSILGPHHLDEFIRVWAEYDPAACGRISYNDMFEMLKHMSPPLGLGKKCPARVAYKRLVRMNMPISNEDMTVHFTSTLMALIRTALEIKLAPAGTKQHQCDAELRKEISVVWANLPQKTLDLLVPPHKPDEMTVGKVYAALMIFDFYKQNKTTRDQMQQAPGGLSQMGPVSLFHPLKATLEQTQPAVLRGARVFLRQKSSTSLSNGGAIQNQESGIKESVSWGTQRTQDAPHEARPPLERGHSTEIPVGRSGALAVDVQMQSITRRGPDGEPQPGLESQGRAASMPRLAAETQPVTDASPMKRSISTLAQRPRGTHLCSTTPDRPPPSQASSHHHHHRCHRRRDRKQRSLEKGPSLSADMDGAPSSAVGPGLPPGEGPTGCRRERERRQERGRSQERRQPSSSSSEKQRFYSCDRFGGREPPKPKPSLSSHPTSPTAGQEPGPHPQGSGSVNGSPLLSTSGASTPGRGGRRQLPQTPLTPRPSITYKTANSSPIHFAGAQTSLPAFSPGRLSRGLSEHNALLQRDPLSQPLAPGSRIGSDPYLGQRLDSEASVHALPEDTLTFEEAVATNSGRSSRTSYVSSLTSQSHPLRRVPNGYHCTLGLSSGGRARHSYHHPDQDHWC
T6 sequence (Q02410 whole entry): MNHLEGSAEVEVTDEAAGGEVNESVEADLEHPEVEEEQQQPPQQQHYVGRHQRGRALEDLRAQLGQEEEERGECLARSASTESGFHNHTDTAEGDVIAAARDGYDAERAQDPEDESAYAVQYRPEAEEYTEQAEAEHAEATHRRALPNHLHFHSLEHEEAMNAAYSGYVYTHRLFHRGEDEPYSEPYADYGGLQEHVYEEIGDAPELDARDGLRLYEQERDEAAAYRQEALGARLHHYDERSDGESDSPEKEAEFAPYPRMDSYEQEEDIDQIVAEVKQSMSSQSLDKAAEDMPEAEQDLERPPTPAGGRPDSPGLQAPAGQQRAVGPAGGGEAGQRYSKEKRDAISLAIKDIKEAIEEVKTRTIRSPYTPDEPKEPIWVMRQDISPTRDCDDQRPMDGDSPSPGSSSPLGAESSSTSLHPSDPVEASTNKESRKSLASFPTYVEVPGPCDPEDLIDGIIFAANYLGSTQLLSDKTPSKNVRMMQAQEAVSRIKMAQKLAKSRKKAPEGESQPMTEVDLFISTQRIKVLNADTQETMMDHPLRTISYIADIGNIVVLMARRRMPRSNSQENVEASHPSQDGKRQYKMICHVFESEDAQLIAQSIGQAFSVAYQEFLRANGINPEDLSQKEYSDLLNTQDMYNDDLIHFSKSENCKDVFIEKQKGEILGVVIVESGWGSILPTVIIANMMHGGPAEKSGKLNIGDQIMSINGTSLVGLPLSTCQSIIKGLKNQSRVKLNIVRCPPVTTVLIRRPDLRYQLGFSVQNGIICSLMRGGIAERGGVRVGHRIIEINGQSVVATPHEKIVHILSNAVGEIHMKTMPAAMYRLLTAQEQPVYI
Sequence of Melanin-concentrating hormone receptor 1 (Q99705 whole entry): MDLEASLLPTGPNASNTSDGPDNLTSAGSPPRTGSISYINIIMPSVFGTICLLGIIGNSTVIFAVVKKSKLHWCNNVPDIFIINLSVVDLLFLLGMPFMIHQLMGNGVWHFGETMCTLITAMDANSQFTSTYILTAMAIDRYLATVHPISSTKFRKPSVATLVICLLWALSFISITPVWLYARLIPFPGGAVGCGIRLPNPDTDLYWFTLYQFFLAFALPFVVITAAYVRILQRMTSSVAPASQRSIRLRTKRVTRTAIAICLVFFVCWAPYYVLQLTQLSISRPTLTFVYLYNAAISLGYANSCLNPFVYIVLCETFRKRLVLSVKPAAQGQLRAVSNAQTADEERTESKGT
T5 sequence (P11940 whole entry, the tested form may be a part): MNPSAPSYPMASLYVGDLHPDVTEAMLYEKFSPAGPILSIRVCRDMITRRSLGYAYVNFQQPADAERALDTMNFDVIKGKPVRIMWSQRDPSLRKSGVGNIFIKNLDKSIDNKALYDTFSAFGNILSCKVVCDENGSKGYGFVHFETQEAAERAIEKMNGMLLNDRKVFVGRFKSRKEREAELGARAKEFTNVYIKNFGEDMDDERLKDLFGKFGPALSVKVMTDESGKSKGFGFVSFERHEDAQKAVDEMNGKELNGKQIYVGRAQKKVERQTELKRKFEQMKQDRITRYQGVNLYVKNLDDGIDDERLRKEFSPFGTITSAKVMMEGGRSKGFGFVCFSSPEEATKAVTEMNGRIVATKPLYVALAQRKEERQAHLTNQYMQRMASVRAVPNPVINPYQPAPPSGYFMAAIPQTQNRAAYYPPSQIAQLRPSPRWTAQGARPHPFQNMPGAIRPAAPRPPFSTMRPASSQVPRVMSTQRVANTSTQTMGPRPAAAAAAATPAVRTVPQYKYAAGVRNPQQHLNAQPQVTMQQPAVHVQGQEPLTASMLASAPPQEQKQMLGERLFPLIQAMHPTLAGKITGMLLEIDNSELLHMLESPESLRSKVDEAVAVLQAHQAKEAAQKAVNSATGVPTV
Sequence of Potassium voltage-gated channel subfamily KQT member 2 (O88943 whole entry): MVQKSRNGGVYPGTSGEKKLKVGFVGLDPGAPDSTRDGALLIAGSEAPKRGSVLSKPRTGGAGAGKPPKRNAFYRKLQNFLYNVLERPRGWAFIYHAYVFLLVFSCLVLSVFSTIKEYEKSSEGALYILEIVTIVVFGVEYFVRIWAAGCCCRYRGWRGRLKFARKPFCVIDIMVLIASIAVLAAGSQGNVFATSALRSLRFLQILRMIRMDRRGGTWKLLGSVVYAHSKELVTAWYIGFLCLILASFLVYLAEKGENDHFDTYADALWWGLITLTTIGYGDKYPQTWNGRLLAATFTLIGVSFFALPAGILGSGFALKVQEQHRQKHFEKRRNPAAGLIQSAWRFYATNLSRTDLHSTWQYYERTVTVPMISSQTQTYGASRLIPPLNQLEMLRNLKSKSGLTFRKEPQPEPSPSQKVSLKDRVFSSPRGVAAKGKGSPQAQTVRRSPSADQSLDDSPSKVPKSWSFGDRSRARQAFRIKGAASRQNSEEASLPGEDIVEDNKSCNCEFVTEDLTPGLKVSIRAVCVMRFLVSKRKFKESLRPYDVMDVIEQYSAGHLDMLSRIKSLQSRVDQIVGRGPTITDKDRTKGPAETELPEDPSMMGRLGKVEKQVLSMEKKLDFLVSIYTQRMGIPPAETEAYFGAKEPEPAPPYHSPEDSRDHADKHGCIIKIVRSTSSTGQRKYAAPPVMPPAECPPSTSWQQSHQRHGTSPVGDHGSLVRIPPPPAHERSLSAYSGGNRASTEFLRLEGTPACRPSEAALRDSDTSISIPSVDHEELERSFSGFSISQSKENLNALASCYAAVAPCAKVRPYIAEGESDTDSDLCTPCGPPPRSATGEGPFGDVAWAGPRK

For `COc1ccccc1CC(=O)NC1CCCc2ccccc21` (stereo not drawn), the IC50 [1] was 9.28 µM (active).
In the case of `COc1ccc(Oc2c(CCl)cnn(Cc3cccc4ccccc34)c2=O)cc1`, the IC50 [2] was 2.87 µM (active) and the IC50 [3] was 2.87 µM (active).
In the case of `Cc1cccc(NC(=O)[C@@H]2CCCN2S(=O)(=O)c2ccc(Cl)cc2)c1`, the IC50 [4] was > 49.7 µM (inactive), the IC50 [5] was 4.23 µM (active) and the IC50 [6] was 1.4 µM (active). For the same compound, the IC50 [7] was > 66.2 µM (inactive), the IC50 [8] was 0.153 µM (active) and the IC50 [9] was 0.37 µM (active).
With `O=C(CSc1c2c(nc3ccc(Cl)cc13)CCCC2)NCCCN1CCOCC1` the IC50 [10] was 4.47 µM (active) and the IC50 [11] was 4.29 µM (active).
With `CC(C)CNc1nc(S)nc(N(C)C)n1` the EC50 [12] was > 104 µM (inactive), the IC50 [13] was > 66 µM (inactive) and the IC50 [14] was > 66 µM (inactive).
In the case of `O=C(COC(=O)c1ccccn1)c1cccc(Br)c1`, the AC50 [15] was 91 µM (active) and the IC50 [16] was 25.6 µM (active).
With `Oc1c(Br)cc(Br)cc1/C=N\c1cccnc1` the IC50 [10] was 2.99 µM (active), the CC50 [17] was 17.3 µM (active) and the IC50 [11] was 4.37 µM (active). The AC50 [18] was 3.09 µM (active).
With `N#CCc1c(Cl)cnn(Cc2cccc3ccccc23)c1=O` the IC50 [2] was 2.69 µM (active) and the IC50 [3] was 2.69 µM (active).
With `O=C(CN1C(=O)/C(=C\c2cccc(Br)c2)Oc2ccccc21)NCC1CCCO1` (stereo not drawn) the IC50 [4] was > 49.8 µM (inactive), the IC50 [5] was 1.08 µM (active) and the IC50 [6] was > 88.8 µM (inactive). For the same compound, the IC50 [7] was > 66.2 µM (inactive), the IC50 [19] was > 50 µM (inactive) and the AC50 [20] was 4.3 µM (active). The IC50 [8] was 0.314 µM (active), the IC50 [21] was 4.98 µM (active) and the IC50 [9] was > 50 µM (inactive).
For `O=C(NC(c1ccccc1)c1ccc2ccccc2n1)C1CCN(CCOc2ccc(Cl)cc2Cl)CC1` (stereo not drawn), the EC50 [22] was > 89.2 µM (inactive).
With `O=[N+]([O-])Nc1nccn1Cc1ccc(Cl)nc1` [DEHYDROIMIDACLOPRID] the AC50 [23] was 39.8 µM (inconclusive).
